# Experimental data reported in PMC8724943 (Translational Oncology, 2021).
# Target: p21 activated kinase 4 (PAK4) (Homo sapiens, UniProt O96013)
# Experiment: in vitro radiometric kinase assay
# Assay type: biochemical
# Chain of p21 activated kinase 4 (PAK4) (O96013 whole entry): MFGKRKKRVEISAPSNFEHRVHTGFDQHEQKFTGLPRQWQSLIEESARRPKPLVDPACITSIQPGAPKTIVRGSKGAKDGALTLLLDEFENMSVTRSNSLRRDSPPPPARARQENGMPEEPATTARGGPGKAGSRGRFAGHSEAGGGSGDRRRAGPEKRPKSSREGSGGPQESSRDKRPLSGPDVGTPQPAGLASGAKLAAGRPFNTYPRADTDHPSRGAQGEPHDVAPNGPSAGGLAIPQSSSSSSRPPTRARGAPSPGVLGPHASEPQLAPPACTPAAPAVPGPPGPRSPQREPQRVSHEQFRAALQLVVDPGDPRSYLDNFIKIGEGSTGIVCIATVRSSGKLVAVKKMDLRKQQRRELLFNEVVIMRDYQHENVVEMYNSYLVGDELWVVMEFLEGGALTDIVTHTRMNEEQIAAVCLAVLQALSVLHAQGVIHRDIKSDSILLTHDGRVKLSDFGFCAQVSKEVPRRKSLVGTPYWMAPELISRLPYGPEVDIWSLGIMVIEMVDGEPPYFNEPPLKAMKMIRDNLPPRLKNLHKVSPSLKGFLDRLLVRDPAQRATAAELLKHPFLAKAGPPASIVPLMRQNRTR
substance,measurement,value
PAKib,IC50,~0.5 µM
